Counter-ions that a name gives are not always drawn.
Biological target: T1, 5-hydroxytryptamine receptor 1A (Homo sapiens, UniProt P08908)
T1 sequence (P08908 whole entry): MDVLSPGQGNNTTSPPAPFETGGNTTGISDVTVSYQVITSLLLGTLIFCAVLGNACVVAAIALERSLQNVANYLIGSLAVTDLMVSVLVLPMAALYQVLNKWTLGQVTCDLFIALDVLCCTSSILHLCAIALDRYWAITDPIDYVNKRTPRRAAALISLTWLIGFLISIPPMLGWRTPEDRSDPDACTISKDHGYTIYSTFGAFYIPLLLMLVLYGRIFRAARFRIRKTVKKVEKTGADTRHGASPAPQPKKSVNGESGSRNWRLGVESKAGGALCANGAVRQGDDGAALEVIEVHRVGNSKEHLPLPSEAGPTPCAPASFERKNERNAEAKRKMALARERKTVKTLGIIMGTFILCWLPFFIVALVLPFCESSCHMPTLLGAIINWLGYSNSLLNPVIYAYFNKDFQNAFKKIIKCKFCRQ
Assay: Radioligand Binding Assay ([3H]-8-OH-DPAT)
Conditions: pH 7.4
Procedure: Binding experiments were conducted in 96-well microplates in a total volume of 250 μL of buffer (50 mM Tris-HCl pH 7.4, 10 mM MgCl2, 0.5 mM EDTA). Reaction mix included 50 μL solution of test compound, 50 μL of [3H]-8-OH-DPAT, and 150 μL of diluted membranes or the tissue suspension. Incubation condition: 60 min at 27 °C.

Ki [nM] | Structure (SMILES)
659 | CCC(CO)NCCOc1ccc2oc3ccccc3c(=O)c2c1 (stereo not drawn) [R,S-2-{2-[(1-hydroxybutan-2-yl]amino)ethoxy}-9H-xanthen-9-one (9)]
320 | CCC(O)CNCCOc1ccc2oc3ccccc3c(=O)c2c1 (stereo not drawn) [R,S-2-{2-[(2-hydroxybutyl)amino]ethoxy}-9H-xanthen-9-one hydrochloride (8a)]

Structure (SMILES) | Ki [nM]
CCC(CO)NCCCOc1ccc2oc3ccccc3c(=O)c2c1 (stereo not drawn) [R,S-2-{3-[(1-hydroxybutan-2-yl)amino]propoxy}-9H-xanthen-9-one (12)] | > 5000

— BindingDB's records for doi:10.1111/cbdd.12842 (Jagiellonian University Medical College, 2017)
